“And” between values parts separate entries of the source, which are not always exact repeats. Identical values can stand only once.
Legend:
[1] = system: Zygosaccharomyces rouxii strain, Y-229, and Torulaspora delbruckii strain, Y-866; experiment: yeast challenge in dark chocolate sauce, yeast enumeration; assay type: cell-based
Method: (§1) The treatments were prepared by dissolving the spray dried fermentate in 15 ml sterile water and then mixed into the sauce using sterile hand whisks. One of the L. reuteri fermentate treatments was incubated for 30 minutes in a water bath set at 60° C. prior to addition to the chocolate sauce to determine how heat would affect the treatment since traditional manufacturing of the chocolate sauce includes a heating step.
(§2) All jars were then inoculated with a dual yeast challenge of Zygosaccharomyces rouxii strain, Y-229, and Torulaspora delbruckii strain, Y-866, which were both obtained from the ARS NRRL Culture Collection. The yeast strains were grown in Potato Dextrose broth at 32° C. overnight, then diluted in sterile water to approximately 2.0×10^5 CFU/ml. The two strains were then combined and 5 ml of the combination culture was added to each jar to provide a challenge dose of approximately 1.0×10^3 CFU/ml.
(§3) A 10-gram sample was removed from each jar immediately after challenge inoculation to analyze the pH and the initial yeast count in duplicate on Potato Dextrose Agar acidified with 10% Tartaric Acid (PDA4-TA) as well as the total aerobic plate count (APC) in duplicate on Tryptic Soy Agar (TSA). Once solidified, the PDA+TA plates were incubated at 28° C. for 72 hours and the TSA plates were incubated at 32° C. for 48 hours, then counted to determine CFU/g. The jars were kept at room temperature (˜20-22° C.) in a dark cabinet for the first 21 days, then moved to an incubator set at 28° C. for the duration of the study. On days 4, 7, 11, 14, 18, 21, 28, 35, 49, 56, 63, 94, 109, and 124, a 10-gram sample was removed from each jar to analyze the change in pH, as well as the yeast and APC levels in duplicate as described above.

[2] = system: total aerobic plate count (APC); experiment: total aerobic plate count (APC) in dark chocolate sauce; assay type: cell-based
Method: as §1, §2, §3

## C/C=C/C=C/C(=O)[O-].[K+] [Potassium sorbate]
[1]; dark chocolate sauce
  day at which resurgence of yeast started: 49 days
  day at which yeast levels were no longer detectable (<10 CFU/g): 35 days
[1]; day 0
  Enumeration of yeast in dark chocolate sauce, AVG: 2.00E+03 CFU/g
  Enumeration of yeast in dark chocolate sauce, duplicate counts: 1.73E+03 CFU/g and 2.27E+03 CFU/g
[1]; day 4
  Enumeration of yeast in dark chocolate sauce, AVG: 1.23E+03 CFU/g
  Enumeration of yeast in dark chocolate sauce, duplicate counts: 9.49E+02 CFU/g and 1.51E+03 CFU/g
[1]; day 7
  Enumeration of yeast in dark chocolate sauce, AVG: 9.08E+02 CFU/g
  Enumeration of yeast in dark chocolate sauce, duplicate counts: 6.43E+02 CFU/g and 1.17E+03 CFU/g
[1]; day 11
  Enumeration of yeast in dark chocolate sauce, AVG: 1.02E+03 CFU/g
  Enumeration of yeast in dark chocolate sauce, duplicate counts: 1.10E+03 CFU/g and 9.43E+02 CFU/g
[1]; day 14
  Enumeration of yeast in dark chocolate sauce, AVG: 5.48E-02 CFU/g
  Enumeration of yeast in dark chocolate sauce, duplicate counts: 4.99E+02 CFU/g and 5.98E+02 CFU/g
[1]; day 18
  Enumeration of yeast in dark chocolate sauce, AVG: 3.30E+02 CFU/g
[1]; day 21
  Enumeration of yeast in dark chocolate sauce, AVG: 2.06E+02 CFU/g
[1]; day 28
  Enumeration of yeast in dark chocolate sauce, AVG: 1.26E+02 CFU/g
  Enumeration of yeast in dark chocolate sauce, duplicate counts: 1.51E+02 CFU/g and 1.00E+02 CFU/g
[1]; day 35
  Enumeration of yeast in dark chocolate sauce, AVG: <10 CFU/g
  Enumeration of yeast in dark chocolate sauce, duplicate counts: <10 CFU/g
[1]; day 49
  Enumeration of yeast in dark chocolate sauce, AVG: 1.53E+01 CFU/g
[1]; day 56
  Enumeration of yeast in dark chocolate sauce, AVG: <10 CFU/g
  Enumeration of yeast in dark chocolate sauce, duplicate counts: <10 CFU/g
[1]; day 63
  Enumeration of yeast in dark chocolate sauce, AVG: <10 CFU/g
  Enumeration of yeast in dark chocolate sauce, duplicate counts: <10 CFU/g
[1]; day 94
  Enumeration of yeast in dark chocolate sauce, AVG: 3.71E+02 CFU/g
  Enumeration of yeast in dark chocolate sauce, duplicate counts: 3.07E+02 CFU/g and 4.35E+02 CFU/g
[1]; day 109
  Enumeration of yeast in dark chocolate sauce, AVG: 1.50E+02 CFU/g
[1]; day 124
  Enumeration of yeast in dark chocolate sauce, AVG: 1.21E+04 CFU/g
  Enumeration of yeast in dark chocolate sauce, duplicate counts: 1.25E+04 CFU/g and 1.17E+04 CFU/g
[2]; day 0
  APC, CFU/g (duplicate counts): 2.83E+03 CFU/g and 2.94E+03 CFU/g
[2]; day 0, average of duplicate counts
  APC, AVG: 2.89E+03 CFU/g
[2]; day 4
  APC, CFU/g (duplicate counts): 2.57E+03 CFU/g and 2.96E+03 CFU/g
[2]; day 4, average of duplicate counts
  APC, AVG: 2.77E+03 CFU/g
[2]; day 7
  APC, CFU/g (duplicate counts): 2.47E+03 CFU/g and 3.12E+03 CFU/g
[2]; day 7, average of duplicate counts
  APC, AVG: 2.79E+03 CFU/g
[2]; day 11
  APC, CFU/g (duplicate counts): 2.24E+03 CFU/g and 2.49E+03 CFU/g
[2]; day 11, average of duplicate counts
  APC, AVG: 2.36E+03 CFU/g
[2]; day 14
  APC, CFU/g (duplicate counts): 1.59E+03 CFU/g and 2.13E+03 CFU/g
[2]; day 14, average of duplicate counts
  APC, AVG: 1.86E+03 CFU/g
[2]; day 18
  APC, CFU/g (duplicate counts): 1.44E+03 CFU/g and 1.56E+03 CFU/g
[2]; day 18, average of duplicate counts
  APC, AVG: 1.50E+03 CFU/g
[2]; day 21
  APC, CFU/g (duplicate counts): 1.13E+03 CFU/g and 1.31E+03 CFU/g
[2]; day 21, average of duplicate counts
  APC, AVG: 1.22E+03 CFU/g
[2]; day 28
  APC, CFU/g (duplicate counts): 8.53E+02 CFU/g and 9.84E+02 CFU/g
[2]; day 28, average of duplicate counts
  APC, AVG: 9.19E+02 CFU/g
[2]; day 35
  APC, CFU/g (duplicate counts): 7.22E+02 CFU/g and 6.82E+02 CFU/g
[2]; day 35, average of duplicate counts
  APC, AVG: 7.02E+02 CFU/g
[2]; day 49
  APC, CFU/g (duplicate counts): 6.85E+02 CFU/g and 6.14E+02 CFU/g
[2]; day 49, average of duplicate counts
  APC, AVG: 6.50E+02 CFU/g
[2]; day 56
  APC, CFU/g (duplicate counts): 5.72E+02 CFU/g and 3.71E+02 CFU/g
[2]; day 56, average of duplicate counts
  APC, AVG: 4.71E+02 CFU/g
[2]; day 63
  APC, CFU/g (duplicate counts): 5.89E+02 CFU/g and 6.79E+02 CFU/g
[2]; day 63, average of duplicate counts
  APC, AVG: 6.34E+02 CFU/g
[2]; day 94
  APC, CFU/g (duplicate counts): 5.54E+02 CFU/g and 7.62E+02 CFU/g
[2]; day 94, average of duplicate counts
  APC, AVG: 6.58E+02 CFU/g
[2]; day 109
  APC, CFU/g (duplicate counts): 6.36E+02 CFU/g and 5.52E+02 CFU/g
[2]; day 109, average of duplicate counts
  APC, AVG: 5.94E+02 CFU/g
[2]; day 124
  APC, CFU/g (duplicate counts): 2.52E+02 CFU/g and 3.78E+02 CFU/g
[2]; day 124, average of duplicate counts
  APC, AVG: 3.15E+02 CFU/g

Source: patent publication US11213055B2, “Fermentate compositions and methods of making and using the same” (Third Wave Bioactives, LLC, priority 2017, dated 2022)
